For orientation: IC50 means the concentration needed to halve the response being measured.

Molecules are shown by their SMILES.

For the assay, the system named is acetylated tubulin (Lys40) in HeLa cells. Briefly: Acetylated α-tubulin measurement in vitro (immunocytochemistry). It counts as cell-based. To be noted: Homo sapiens, 6 hours incubation, acetylated tubulin (Lys40) by immunocytochemistry, read-out: IC50 (Tubulin deacetylation). Here is the method: HeLa cells were cultured in UltraCulture serum-free medium (Lonza) supplemented with 2 mM glutamine (Lonza). Assays were performed at 96-well or 384-well format, differences in assay protocols are detailed in Table 6. Cells per well were plated and incubated overnight at 37° C. overnight in a humidified atmosphere containing 5% CO2. Cell density and seeding volumes are detailed in Table 6. Compounds (dissolved in 100% DMSO) or DMSO (vehicle) were added manually by diluting them in culture medium at 10× final assay concentration and adding 10 μL to cells (96-well protocol). Alternatively, 50 nL compound was added directly to the cell culture using the Echo650 (Labcyte) (384-well protocol). In this assay, the final assay concentration of DMSO is 0.1%-0.4%. Trichostatin A (TSA) was used as a positive control. Cells were incubated with compounds at 37° C. in a humidified atmosphere containing 5% CO2 for 6 hours. Levels of acetylated tubulin (Lys40) were assessed by immunocytochemistry using target-specific antibodies. Cells were fixed with 4% PFA at RT as detailed in Table 6. After 2-3 wash steps with PBS, cells were permeabilized with 0.5% Triton in PBS at RT for 10 minutes followed by 1-2 washes with PBS. To avoid non-specific antibody staining, cells were blocked with 3% BSA in PBS at room temperature for 1 hour. […] Cells were washed 2-3 times with PBS and labelled for 1 h at RT with goat anti-mouse conjugated with Alexa 647 (Thermofisher) and goat anti-rabbit conjugated with Alexa 555 (Thermofisher) secondary antibodies, diluted in 1% BSA to a final concentration of 1:1000. Simultaneously, nuclei were stained with 1:10000-1:15000 Hoechst (Thermofisher). Incubation time and temperature of the primary antibodies are detailed in Table 6. Cells were washed 2-3 times with PBS and they were imaged with the Operetta CLS or Opera Phenix (PerkinElmer). Imaging is further detailed in Table 6. For imaging analysis, the Harmony analysis software (PerkinElmer) was used. Cytoplasmic (defined by total α-tubulin staining) intensities per well were used for α-tubulin (acetylated and total) quantification. Intensities were measured per cell and then averaged per well. Mean intensity levels of acetylated tubulin were normalized to the mean intensity levels of total tubulin. The changes in acetylated tubulin were normalized for each plate using GraphPad Prism software: tubulin acetylation in vehicle (DMSO)-treated cells were set to 0% while tubulin acetylation in TSA-treated cells were set to 100%. EC50 values were calculated using the log(inhibitor) vs. response—Variable slope (four parameters) nonlinear regression in GraphPad Prism software.
Regarding `Cc1nc(SCC(=O)c2ccc(CNC(=O)CO)s2)c2cc(Cl)cc(F)c2n1` [Example 142, N-((5-(2-((6-chloro-8-fluoro-2-methylquinazolin-4-yl)thio)acetyl)thiophen-2-yl)methyl)-2-hydroxyacetamide], the IC50 was at most 100 nM.
The same measure for `CCn1ncc2c(SCC(=O)c3ccc(CNC(=O)CO)s3)nc(C(F)(F)F)nc21` [Example 136, N-((5-(2-((1-ethyl-6-(trifluoromethyl)-1H-pyrazolo[3,4-d]pyrimidin-4-yl)thio)acetyl)thiophen-2-yl)methyl)-2-hydroxyacetamide]: 100 to 500 nM; for `Cc1nc(SCC(=O)c2ccc(CNC(=O)CO)s2)c2ncccc2n1` [Example 153, 2-hydroxy-N-((5-(2-((2-methylpyrido[3,2-d]pyrimidin-4-yl)thio)acetyl)thiophen-2-yl)methyl)acetamide]: at most 100 nM.
In the case of `Cn1ncc2c(SCC(=O)c3cc(F)c(CNC(=O)C(C)(C)C)s3)ncnc21` [Example 28, N-((3-fluoro-5-(2-((1-methyl-1H-pyrazolo[3,4-d]pyrimidin-4-yl)thio)acetyl)thiophen-2-yl)methyl)pivalamide] it was 1000 to 3330 nM; in that of `O=C(CO)NCc1ccc(C(=O)CSc2nc(C(F)(F)F)nc3nn(C4CC4)cc23)s1` [Example 79, N-((5-(2-((2-cyclopropyl-6-(trifluoromethyl)-2H-pyrazolo[3,4-d]pyrimidin-4-yl)thio)acetyl)thiophen-2-yl)methyl)-2-hydroxyacetamide], at most 100 nM.
For `COc1ccc2nc(C)nc(SCC(=O)c3ccc(CNC(=O)N(C)C)s3)c2c1` [Example 189, 3-((5-(2-((6-methoxy-2-methylquinazolin-4-yl)thio)acetyl)thiophen-2-yl)methyl)-1,1-dimethylurea], the IC50 lay within 100 to 500 nM.
Turning to `COc1ccc2nc(C)nc(SCC(=O)c3ccc(CCN4CCC(O)C4=O)s3)c2c1` (stereo not drawn) [Example 115, 3-hydroxy-1-(2-(5-(2-((6-methoxy-2-methylquinazolin-4-yl)thio)acetyl)thiophen-2-yl)ethyl)pyrrolidin-2-one], the IC50 fell in the range of 500 to 1000 nM.
The same measure for `Cc1nc(SCC(=O)c2ccc(CNC(=O)CO)s2)c2cc(NCC3CC3)ccc2n1` [Example 78, N-((5-(2-((6-((cyclopropylmethyl)amino)-2-methylquinazolin-4-yl)thio)acetyl)thiophen-2-yl)methyl)-2-hydroxyacetamide]: 100 to 500 nM.
In the case of `COc1ccc2nc(C)nc(SCC(=O)c3ccc(CNC(=O)C4CCCN4)s3)c2c1` (stereo not drawn) [Example 184, N-((5-(2-((6-methoxy-2-methylquinazolin-4-yl)thio)acetyl)thiophen-2-yl)methyl)pyrrolidine-2-carboxamide] it was 100 to 500 nM.
In the case of `Cc1nc(SCC(=O)c2ccc(CNC(=O)C3CC3(F)F)s2)c2cccnc2n1` (stereo not drawn) [Example 110, 2,2-difluoro-N-((5-(2-((2-methylpyrido[2,3-d]pyrimidin-4-yl)thio)acetyl)thiophen-2-yl)methyl)cyclopropane-1-carboxamide] it was at most 100 nM.
As for `CN(Cc1ccc(C(=O)CSc2nc(C(F)(F)F)nc3ncccc23)s1)C(=O)CO` [Example 131, 2-hydroxy-N-methyl-N-((5-(2-((2-(trifluoromethyl)pyrido[2,3-d]pyrimidin-4-yl)thio)acetyl)thiophen-2-yl)methyl)acetamide], the IC50 lay in the range of 100 to 500 nM.
As for `COc1ccc2nc(C)nc(SCC(=O)c3ccc(CNC(=O)C4CC4)s3)c2c1` [Example 51, N-((5-(2-((6-methoxy-2-methylquinazolin-4-yl)thio)acetyl)thiophen-2-yl)methyl)cyclopropanecarboxamide], the IC50 was in the range of 1000 to 3330 nM.
In the case of `COc1cnc2nc(C)nc(SCC(=O)c3ccc(CNC(=O)OC(C)(C)C)s3)c2c1` [Example 190, tert-butyl ((5-(2-((6-methoxy-2-methylpyrido[2,3-d]pyrimidin-4-yl)thio)acetyl)thiophen-2-yl)methyl)carbamate] it was 100 to 500 nM; in that of `Cc1nc(SCC(=O)c2ccc(CNC(=O)C(C)(C)C)s2)c2ccc(Cl)cc2n1` [Example 8, N-((5-(2-((7-chloro-2-methylquinazolin-4-yl)thio)acetyl)thiophen-2-yl)methyl)pivalamide], over 3330 nM.
On to `Cn1cc2c(SCC(=O)c3ccc(CNC(=O)CO)s3)nc(C(F)(F)F)nc2n1` [Example 61, 2-hydroxy-N-((5-(2-((2-methyl-6-(trifluoromethyl)-2H-pyrazolo[3,4-d]pyrimidin-4-yl)thio)acetyl)thiophen-2-yl)methyl)acetamide], for which the IC50 is at most 100 nM.
In the case of `O=C(CSc1nc(C(F)(F)F)nc2ncccc12)c1ccc(CNS(=O)(=O)CC(F)(F)F)s1` [Example 123, 2,2,2-trifluoro-N-((5-(2-((2-(trifluoromethyl)pyrido[2,3-d]pyrimidin-4-yl)thio)acetyl)thiophen-2-yl)methyl)ethane-1-sulfonamide] it was 100 to 500 nM; in that of `Cc1nc(SCC(=O)c2ccc(CNC(=O)C(C)(C)C)s2)c2ncccc2n1` [Example 18, N-((5-(2-((2-methylpyrido[3,2-d]pyrimidin-4-yl)thio)acetyl)thiophen-2-yl)methyl)pivalamide], 1000 to 3330 nM.
In the case of `COc1ccc2nc(C)nc(SCC(=O)c3ccc(CN(C)C(=O)CO)s3)c2c1` [Example 109, 2-hydroxy-N-((5-(2-((6-methoxy-2-methylquinazolin-4-yl)thio)acetyl)thiophen-2-yl)methyl)-N-methylacetamide] it was 100 to 500 nM; in that of `Cn1cc2c(SCC(=O)c3ccc(CNC(=O)C4CC4)s3)nc(C(F)(F)F)nc2n1` [Example 41, N-((5-(2-((2-methyl-6-(trifluoromethyl)-2H-pyrazolo[3,4-d]pyrimidin-4-yl)thio)acetyl)thiophen-2-yl)methyl)cyclopropanecarboxamide], 1000 to 3330 nM; in that of `Cc1nc(SCC(=O)c2ccc(CNC(=O)CO)s2)c2cc(N3CCOCC3)ccc2n1` [Example 81, 2-hydroxy-N-((5-(2-((2-methyl-6-morpholinoquinazolin-4-yl)thio)acetyl)thiophen-2-yl)methyl)acetamide], 100 to 500 nM.
As for `COc1cnc2nc(C)nc(SCC(=O)c3ccc(CN4CCOCC4=O)s3)c2c1` [Example 161, 4-((5-(2-((6-methoxy-2-methylpyrido[2,3-d]pyrimidin-4-yl)thio)acetyl)thiophen-2-yl)methyl)morpholin-3-one], the IC50 lay within 100 to 500 nM.
The same measure for `Cc1nc(SCC(=O)c2ccc(CNC(=O)CO)s2)c2cc(C3CC3)ccc2n1` [Example 106, N-((5-(2-((6-cyclopropyl-2-methylquinazolin-4-yl)thio)acetyl)thiophen-2-yl)methyl)-2-hydroxyacetamide]: 100 to 500 nM.
The same measure for `O=C(CO)NCc1ccc(C(=O)CSc2nccc3ncccc23)s1` [Example 179, N-((5-(2-((1,6-naphthyridin-5-yl)thio)acetyl)thiophen-2-yl)methyl)-2-hydroxyacetamide]: at most 100 nM.
For the molecule `Cc1nc(SCC(=O)c2ccc(CNC(=O)CO)s2)c2cc(C(F)(F)F)ccc2n1` [Example 76, 2-hydroxy-N-((5-(2-((2-methyl-6-(trifluoromethyl)quinazolin-4-yl)thio)acetyl)thiophen-2-yl)methyl)acetamide], the IC50 is at most 100 nM.

These data come from US12421222B2 (AUGUSTINE THERAPEUTICS, priority 2021, dated 2025).
